Laboratory results from paper PMC12133982, “Predominant T-cell epitopes of SARS-CoV-2 restricted by multiple prevalent HLA-B and HLA-C allotypes in Northeast Asia” (Frontiers in Immunology, 2025).
Several values for one entry are separate records, joined by “and”; a condition that tells them apart may be missing. Identical values can stand only once. Peptide text beside a SMILES is read from it.

Assays:
[1] = molecular target: HLA-B4601 (Homo sapiens, UniProt P01889, A329T/A93R/C349S/D201E/E100V/E187L/E204Q/E69M/E70A/I90K/K202T/N87E/R155S/R180W/S121R/S35A/S48A/V306I/V36M/Y140S); assay: Competitive peptide binding assay, CIR-B4601; conditions: for IC50: HMy2.CIR-B4601 cells, reference Cy5-[…], class from inhibition at 5 and 15 μM, flow cytometry MFI, read-out: Binding affinity with HLA-B4601; for inhibition at 5 µM: read-out: Inhibition % of Cy5-reference peptide binding, CIR-B4601, 5μM peptide; for inhibition at 15 µM: read-out: Inhibition % of Cy5-reference peptide binding, CIR-B4601, 15μM peptide
Procedure: (§1) Then, competitive peptide binding assays were performed.

[2] = molecular target: HLA-B4001 (Homo sapiens, UniProt P01889, A65T/A93T/A95T/D138N/D98Y/E176V/E69K/N87E/Q56L/Q94N/R180L/S121R/S35A/S48T/T167S/V36M/W171L/Y33H/Y91S); assay: Competitive peptide binding assay, CIR-B4001; conditions: HMy2.CIR-B4001 cells, reference Cy5-[…], class from inhibition at 5 and 15 μM, flow cytometry MFI; read-out: Binding affinity with HLA-B4001
Procedure: as §1

[3] = molecular target: HLA-B1501 (Homo sapiens, UniProt P01889, A329T/A93T/A95T/C349S/D201E/D98Y/E187L/E204Q/E69M/E70A/K202T/N87E/Q94N/R155S/R180W/S121R/S35A/S48A/V306I/V36M/Y140S/Y91S); assay: Competitive peptide binding assay, CIR-B1501; conditions: HMy2.CIR-B1501 cells, reference Cy5-[…], class from inhibition at 5 and 15 μM, flow cytometry MFI; read-out: Binding affinity with HLA-B1501
Procedure: as §1

[4] = molecular target: HLA-B4403 (Homo sapiens, UniProt P01889, A223V/A65T/A93T/A95T/D201E/D98Y/E176V/E187L/E204Q/E69K/G107R/H137Y/K202T/L105A/L119I/N104T/N87E/Q56L/Q94N/R106L/R155S/R180L/S101N/S121R/S35A/S48T/T118I/V36M/W191S/Y140D/Y91S); assay: Competitive peptide binding assay, CIR-B4403; conditions: HMy2.CIR-B4403 cells, reference Cy5-CYMEAVAL, class from inhibition at 5 and 15 μM, flow cytometry MFI; read-out: Binding affinity with HLA-B4403
Procedure: as §1

[5] = molecular target: HLA-B5801 (Homo sapiens, UniProt P01889, A329T/C349S/D201E/D98Y/E176V/E187L/E204Q/E69T/G107R/I218V/I90N/K202T/L105A/L119I/N104I/N87E/Q89R/Q94S/R106L/R155S/R180L/R86G/S101N/S121R/S35A/S48A/T118I/V127L/V306I/V36M/Y140S/Y91M); assay: Competitive peptide binding assay, CIR-B5801; conditions: HMy2.CIR-B5801 cells, reference Cy5-[…], class from inhibition at 5 and 15 μM, flow cytometry MFI; read-out: Binding affinity with HLA-B5801
Procedure: as §1

[6] = molecular target: HLA-B5101 (Homo sapiens, UniProt P01889, A329T/A93T/A95T/C349S/D138N/D201E/D98Y/E187L/E204Q/E69T/G107R/I218V/K202T/L105A/L119W/N104I/Q94N/R106L/R155S/R180L/S101N/S121T/S35A/S48A/V306I/V36M/Y195H/Y91F); assay: Competitive peptide binding assay, CIR-B5101; conditions: HMy2.CIR-B5101 cells, reference Cy5-[…], class from inhibition at 5 and 15 μM, flow cytometry MFI; read-out: Binding affinity with HLA-B5101
Procedure: as §1

[7] = molecular target: HLA-B3501 (Homo sapiens, UniProt P01889, A329T/A93T/A95T/C349S/D201E/D98Y/E176V/E187L/E204Q/E69T/I218V/K202T/L119I/Q94N/R155S/R180L/S121R/S35A/S48A/T118I/V127L/V306I/V36M/Y140S/Y91F); assay: Competitive peptide binding assay, CIR-B3501; conditions: HMy2.CIR-B3501 cells, reference Cy5-[…], class from inhibition at 5 and 15 μM, flow cytometry MFI; read-out: Binding affinity with HLA-B3501
Procedure: as §1

[8] = molecular target: HLA-B1302 (Homo sapiens, UniProt P01889, A65T/A93T/A95T/D138N/D201E/D98Y/E176V/E204Q/E69M/E70A/G107R/K202T/L105A/L119W/N104T/N87E/Q94N/R106L/R155S/R169L/R180L/S101N/S121T/S35A/S48T/V127L/V36M/Y140L/Y91S); assay: Competitive peptide binding assay, CIR-B1302; conditions: HMy2.CIR-B1302 cells, reference Cy5-MMWYWGPSL, class from inhibition at 5 and 15 μM, flow cytometry MFI; read-out: Binding affinity with HLA-B1302
Procedure: as §1

[9] = molecular target: T1, HLA-B0702 (Homo sapiens, UniProt P01889); assay: Competitive peptide binding assay, CIR-B0702; conditions: HMy2.CIR-B0702 cells, reference Cy5-[…], class from inhibition at 5 and 15 μM, flow cytometry MFI
T1 construct: expressed in transfected cells; host or cells: HMy2.CIR
Procedure: as §1

[10] = molecular target: HLA-B1502 (Homo sapiens, UniProt P01889, A329T/A93T/A95T/C349S/D201E/D98Y/E187L/E204Q/E69M/E70A/H137Y/K202T/L119I/Q94N/R155S/R180L/S121R/S35A/S48A/T118I/V306I/V36M/Y140S/Y91S); assay: Competitive peptide binding assay, CIR-B1502; conditions: HMy2.CIR-B1502 cells, reference Cy5-[…], class from inhibition at 5 and 15 μM, flow cytometry MFI; read-out: Binding affinity with HLA-B1502
Procedure: as §1

[11] = molecular target: HLA-B1301 (Homo sapiens, UniProt P01889, A65T/A93T/A95T/D138N/D201E/D98Y/E176V/E204Q/E69M/E70A/G107R/K202T/L105A/L119I/N104T/N87E/Q94N/R106L/R155S/R169L/R180L/S101N/S121R/S35A/S48T/T118I/V127L/V36M/Y140L/Y91S); assay: Competitive peptide binding assay, CIR-B1301; conditions: HMy2.CIR-B1301 cells, reference Cy5-[…], class from inhibition at 5 and 15 μM, flow cytometry MFI; read-out: Binding affinity with HLA-B1301
Procedure: as §1

| Structure (SMILES) | IC50 [1] [µM] | inhibition at 5 µM [1] [%] | inhibition at 15 µM [1] [%] | IC50 [2] [µM] | IC50 [3] [µM] | IC50 [4] [µM] | IC50 [5] [µM] | IC50 [6] [µM] | IC50 [7] [µM] | IC50 [8] | IC50 [9] [µM] | IC50 [10] [µM] | IC50 [11] [µM] |
| --- | --- | --- | --- | --- | --- | --- | --- | --- | --- | --- | --- | --- | --- |
| CC[C@H](C)[C@H](NC(=O)[C@H](C)NC(=O)[C@H](C)NC(=O)[C@H](CC(N)=O)NC(=O)[C@H](CC(N)=O)NC(=O)[C@H](C)NC(=O)[C@@H]1CCCN1C(=O)[C@@H](N)CC(N)=O)C(=O)N[C@H](C(=O)O)C(C)C [Epitope Y18] (H-NPANNAAIV-OH; N-terminus and C-terminus assumed) | > 15 | 12.5 | 42.5 | > 15 | 5 to 15 | > 15 | – | – | – | – | – | – | – |
| CC(C)C[C@H](NC(=O)[C@@H](NC(=O)[C@@H](NC(=O)CNC(=O)[C@H](CCC(N)=O)NC(=O)[C@@H]1CCCN1C(=O)[C@H](CC(C)C)NC(=O)[C@H](CCC(N)=O)NC(=O)[C@@H](N)CC(C)C)[C@@H](C)O)[C@@H](C)O)C(=O)O [Epitope Y61] (H-LQLPQGTTL-OH; N-terminus and C-terminus assumed) | > 15 | 20 | 33.6 | – | – | – | 5 to 15 | 5 to 15 | < 5 | – | – | – | – |
| CC(C)[C@H](NC(=O)[C@H](CC(N)=O)NC(=O)[C@H](Cc1ccc(O)cc1)NC(=O)[C@H](C)NC(=O)[C@@H](N)CCCCN)C(=O)N[C@H](C(=O)N[C@@H](CCC(N)=O)C(=O)N[C@@H](C)C(=O)N[C@@H](Cc1ccccc1)C(=O)O)[C@@H](C)O [Epitope Y62] (H-KAYNVTQAF-OH) | 5 to 15 | – | – | > 15 | 5 to 15 | 5 to 15 | 5 to 15 | – | < 5 | > 15 µM | > 15 | – | – |
| CC(C)C[C@H](NC(=O)[C@H](CCC(N)=O)NC(=O)[C@@H](NC(=O)[C@H](CS)NC(=O)[C@H](Cc1ccccc1)NC(=O)[C@H](CO)NC(=O)CNC(=O)[C@H](Cc1ccc(O)cc1)NC(=O)[C@H](CCC(N)=O)NC(=O)[C@@H](N)CC(C)C)[C@@H](C)O)C(=O)O [Epitope Y88] (H-LQYGSFCTQL-OH; N-terminus and C-terminus assumed) | – | – | – | – | > 15 | – | > 15 | > 15 | 5 to 15 | – | – | – | – |
| CC[C@H](C)[C@H](NC(=O)[C@H](CC(C)C)NC(=O)[C@H](CS)NC(=O)CNC(=O)[C@H](C)NC(=O)[C@H](CCCNC(=N)N)NC(=O)[C@@H](NC(=O)[C@H](CCC(N)=O)NC(=O)[C@@H](N)Cc1ccccc1)[C@@H](C)O)C(=O)O [Epitope Y89] (H-FQTRAGCLI-OH; N-terminus and C-terminus assumed) | > 15 | – | – | 5 to 15 | > 15 | > 15 | > 15 | – | > 15 | < 5 µM and > 15 µM | – | – | – |
| CC(C)[C@H](NC(=O)[C@@H](NC(=O)[C@@H](N)Cc1ccccc1)C(C)C)C(=O)N[C@@H](CO)C(=O)N[C@H](C(=O)NCC(=O)N[C@@H](Cc1ccc(O)cc1)C(=O)N[C@@H](Cc1c[nH]cn1)C(=O)N[C@@H](Cc1ccccc1)C(=O)O)[C@@H](C)O [Epitope Y167] (H-FVVSTGYHF-OH; N-terminus and C-terminus assumed) | 5 to 15 | – | – | – | > 15 | > 15 | > 15 | – | 5 to 15 | – | > 15 | 5 to 15 | > 15 |
| CC[C@H](C)[C@H](NC(=O)[C@H](Cc1ccc(O)cc1)NC(=O)[C@H](CCC(N)=O)NC(=O)[C@H](CCC(=O)O)NC(=O)[C@@H](N)Cc1ccc(O)cc1)C(=O)N[C@@H](CCCCN)C(=O)N[C@@H](Cc1c[nH]c2ccccc12)C(=O)N1CCC[C@H]1C(=O)N[C@@H](Cc1c[nH]c2ccccc12)C(=O)O [Epitope Y230] (H-YEQYIKWPW-OH; N-terminus and C-terminus assumed) | > 15 | – | – | > 15 | > 15 | < 5 | 5 to 15 | – | > 15 | – | – | > 15 | – |
